This is an account of results in US11076594B2, “Pyrazolone compound or salt thereof, preparation method therefor, herbicide composition and use thereof” (QINGDAO KINGAGROOT CHEMICAL COMPOUNDS CO., LTD., priority 2015, dated 2021).

Format in all cases: in vivo
In one series the test system is Indian mallow. Put plainly: weed control effect in post-emergence stage (Table 1). Set-up: key: Level 10: completely dead; Level 9: above 95% growth control rate; Level 8: above 90% growth control rate; Level 7: above 80% growth control rate; Level 6: above 70% growth control rate; Level 5: above 60% growth control rate; Level 4: above 50% growth control rate; Level 3: above 20% growth control rate; Level 2: 5%-20% growth control rate; Level 1: below 5% growth control rate. Conditions: post-emergence spray at 4-5 leaf stage, 250 g/ha active ingredient with 450 kg/ha water, rated after 3 weeks in greenhouse. The procedure, abridged:
(§1)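 Fresh-weight-based growth control rate was assessed 3 weeks after spraying. Test compound, dissolved in acetone, with tween 80 added and diluted in water, was sprayed onto greenhouse-grown, pot-cultured weeds and crop plants at 4-5 leaves, 2-3 weeks post-sowing.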

In another series the test system is bidens bipinnata. Described as above. The arrangement: key: Level 10: completely dead; Level 9: above 95% growth control rate; Level 8: above 90% growth control rate; Level 7: above 80% growth control rate; Level 6: above 70% growth control rate; Level 5: above 60% growth control rate; Level 4: above 50% growth control rate; Level 3: above 20% growth control rate; Level 2: 5%-20% growth control rate; Level 1: below 5% growth control rate. Conditions: post-emergence spray at 4-5 leaf stage, 250 g/ha active ingredient with 450 kg/ha water, rated after 3 weeks in greenhouse. Put shortly:
as §1

The test system of another series is crab grass. The description is as above. Set-up: key: Level 10: completely dead; Level 9: above 95% growth control rate; Level 8: above 90% growth control rate; Level 7: above 80% growth control rate; Level 6: above 70% growth control rate; Level 5: above 60% growth control rate; Level 4: above 50% growth control rate; Level 3: above 20% growth control rate; Level 2: 5%-20% growth control rate; Level 1: below 5% growth control rate. Conditions: post-emergence spray at 4-5 leaf stage, 250 g/ha active ingredient with 450 kg/ha water, rated after 3 weeks in greenhouse. The procedure, abridged: as §1

For the next series, the system named is echinochloa. The series is described as above. Set-up: key: Level 10: completely dead; Level 9: above 95% growth control rate; Level 8: above 90% growth control rate; Level 7: above 80% growth control rate; Level 6: above 70% growth control rate; Level 5: above 60% growth control rate; Level 4: above 50% growth control rate; Level 3: above 20% growth control rate; Level 2: 5%-20% growth control rate; Level 1: below 5% growth control rate. Conditions: post-emergence spray at 4-5 leaf stage, 250 g/ha active ingredient with 450 kg/ha water, rated after 3 weeks in greenhouse. Put shortly:
as §1

A further series has as its system foxtail. The description is as above. The arrangement: key: Level 10: completely dead; Level 9: above 95% growth control rate; Level 8: above 90% growth control rate; Level 7: above 80% growth control rate; Level 6: above 70% growth control rate; Level 5: above 60% growth control rate; Level 4: above 50% growth control rate; Level 3: above 20% growth control rate; Level 2: 5%-20% growth control rate; Level 1: below 5% growth control rate. Particulars: post-emergence spray at 4-5 leaf stage, 250 g/ha active ingredient with 450 kg/ha water, rated after 3 weeks in greenhouse. The procedure, abridged: as §1

The subject of another series is rorippa indica. The description is as above. Set-up: key: Level 10: completely dead; Level 9: above 95% growth control rate; Level 8: above 90% growth control rate; Level 7: above 80% growth control rate; Level 6: above 70% growth control rate; Level 5: above 60% growth control rate; Level 4: above 50% growth control rate; Level 3: above 20% growth control rate; Level 2: 5%-20% growth control rate; Level 1: below 5% growth control rate. Conditions: post-emergence spray at 4-5 leaf stage, 250 g/ha active ingredient with 450 kg/ha water, rated after 3 weeks in greenhouse. The procedure, abridged:
as §1

For another series, the system named is corn. Description: post-emergence stage experiment, crop (Table 1). Particulars: post-emergence spray at 4-5 leaf stage, 250 g/ha active ingredient with 450 kg/ha water, rated after 3 weeks in greenhouse. Put shortly: as §1
The subject of series [1] is wheat. Description: post-emergence stage experiment, crop (Table 1). Particulars: post-emergence spray at 4-5 leaf stage, 250 g/ha active ingredient with 450 kg/ha water, rated after 3 weeks in greenhouse. The procedure, abridged: as §1
The subject of the next series is rice. Description: post-emergence stage experiment, crop (Table 1). The arrangement: key: Level 10: completely dead; Level 9: above 95% growth control rate; Level 8: above 90% growth control rate; Level 7: above 80% growth control rate; Level 6: above 70% growth control rate; Level 5: above 60% growth control rate; Level 4: above 50% growth control rate; Level 3: above 20% growth control rate; Level 2: 5%-20% growth control rate; Level 1: below 5% growth control rate. Conditions: post-emergence spray at 4-5 leaf stage, 250 g/ha active ingredient with 450 kg/ha water, rated after 3 weeks in greenhouse. Put shortly: as §1

Series [2] deals with wheat. Description: wheat field test, crop selectivity, greenhouse spray at 4 leaf stage. Conditions: 250 g/ha of the active substance; 4 weeks after treatment. Put shortly:
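After sowing in pots under 0.5-2 cm soil, plants grow to the 4 leaf stage and receive a spray of compound formulated in acetone, methyl oleate emulsion and water. Four weeks later in the greenhouse, the fresh weight control rate gives the growth control rate.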

In a further series the test system is chickweed. Put plainly: wheat field resistant broadleaf weed control, greenhouse spray at 4 leaf stage. Conditions: 250 g/ha of the active substance; 4 weeks after treatment; ALS inhibitor resistant. The arrangement: key: Level 10: completely dead; Level 9: above 95% growth control rate; Level 8: above 90% growth control rate; Level 7: above 80% growth control rate; Level 6: above 70% growth control rate; Level 5: above 60% growth control rate; Level 4: above 50% growth control rate; Level 3: above 20% growth control rate; Level 2: 5%-20% growth control rate; Level 1: below 5% growth control rate. How it is done: (§2) The activity level standard of harmful plant destruction (i.e. growth control rate) is as follows:
(§3) The above described growth control rate is fresh weight control rate.
(§4) The seeds of alopecurus japonicas, flixweed, shepherd's purse, corn gromwell, chickweed, beckmannia syzigachne, and annual ryegrass and wheat seeds were put into a plastic pot loaded with soil, and then covered with 0.5-2 cm soil, the seeds were allowed to grow in good greenhouse environment. The test plants were treated at 4 leaf stage 2-3 weeks after sowing. The test compounds of the present invention were dissolved in acetone respectively, then added with methyl oleate emulsion and diluted by certain amount of water to certain concentration. The solution was sprayed to the plant with a sprayer. Then the plants were cultured for 4 weeks in greenhouse.

The test system of the next series is corn gromwell. The description is as above. The arrangement: key: Level 10: completely dead; Level 9: above 95% growth control rate; Level 8: above 90% growth control rate; Level 7: above 80% growth control rate; Level 6: above 70% growth control rate; Level 5: above 60% growth control rate; Level 4: above 50% growth control rate; Level 3: above 20% growth control rate; Level 2: 5%-20% growth control rate; Level 1: below 5% growth control rate. Particulars: 250 g/ha of the active substance; 4 weeks after treatment; ALS inhibitor resistant. As for the experimental part: as §2, §3, §4

The subject of a further series is flixweed. The series is described as above. Set-up: key: Level 10: completely dead; Level 9: above 95% growth control rate; Level 8: above 90% growth control rate; Level 7: above 80% growth control rate; Level 6: above 70% growth control rate; Level 5: above 60% growth control rate; Level 4: above 50% growth control rate; Level 3: above 20% growth control rate; Level 2: 5%-20% growth control rate; Level 1: below 5% growth control rate. Conditions: 250 g/ha of the active substance; 4 weeks after treatment; ALS inhibitor resistant. How it is done:
as §2, §3, §4

A further series concerns shepherd's purse. The description is as above. The arrangement: key: Level 10: completely dead; Level 9: above 95% growth control rate; Level 8: above 90% growth control rate; Level 7: above 80% growth control rate; Level 6: above 70% growth control rate; Level 5: above 60% growth control rate; Level 4: above 50% growth control rate; Level 3: above 20% growth control rate; Level 2: 5%-20% growth control rate; Level 1: below 5% growth control rate. Particulars: 250 g/ha of the active substance; 4 weeks after treatment; ALS inhibitor resistant. How it is done: as §2, §3, §4

On to `Cc1cnn(-c2c(C(F)(F)F)ccc(C(=O)c3cnn(C)c3OC(=O)c3cn(C)nc3C)c2Cl)c1` [Compound 082], for which the “weed control effect, Indian mallow (level)” value in the series with Indian mallow is reported as 9 (Level 9: above 95% growth control rate). The “weed control effect, Bidens bipinnata (level)” value with bidens bipinnata is recorded as 4 (Level 4: above 50% growth control rate). For the same compound, in the series on crab grass, the “weed control effect, Crab grass (level)” value is 6 (Level 6: above 70% growth control rate). In addition, the “weed control effect, Echinochloa (level)” value in the series with echinochloa is given as 10. Further, in the series on foxtail, the “weed control effect, Green foxtail (level)” value came to 10. In addition, in the series on rorippa indica, the “weed control effect, Rorippa indica (level)” value was 10. Also, the “effect on crop, Corn (level)” value in the series with corn was 3 (Level 3: above 20% growth control rate). In addition, the “effect on crop, Wheat (level)” value in the series on wheat [1] was found to be 0. Besides, the “effect on crop, Rice (level)” value in the series on rice was 3 (Level 3: above 20% growth control rate). The “Wheat (activity level, crop damage)” value in the series with wheat [2] is listed as 0. For the same compound, in the series on chickweed, the “chickweed weed controlling effect (activity level)” value (from here on “chickweed weed controlling effect”) amounted to 10. In addition, the “corn gromwell weed controlling effect (activity level)” value (“corn gromwell weed controlling effect” below) in the series with corn gromwell came to 10. Besides, in the series with flixweed, the “flixweed weed controlling effect (activity level)” value (shortened to “flixweed weed controlling effect”) came out at 10. In addition, the “shepherd's purse weed controlling effect (activity level)” value in the series with shepherd's purse turned out to be 10.
`CCn1nc(C2CC2)c(C(=O)c2ccc(C(F)(F)F)c(-n3cccn3)c2Cl)c1O` [Compound 134]: in the series with Indian mallow, the “weed control effect, Indian mallow (level)” value is 10. Moreover, in the series with bidens bipinnata, the “weed control effect, Bidens bipinnata (level)” value is on record as 9 (Level 9: above 95% growth control rate). Further, the “weed control effect, Crab grass (level)” value in the series on crab grass is 2 (Level 2: 5%-20% growth control rate). For the same compound, the “weed control effect, Echinochloa (level)” value in the series with echinochloa is 6 (Level 6: above 70% growth control rate). Moreover, the “weed control effect, Green foxtail (level)” value in the series on foxtail is listed as 10. In addition, in the series on rorippa indica, the “weed control effect, Rorippa indica (level)” value is on record as 10. In addition, in the series on corn, the “effect on crop, Corn (level)” value was 3 (Level 3: above 20% growth control rate). Besides, in the series on wheat [1], the “effect on crop, Wheat (level)” value was 1 (Level 1: below 5% growth control rate). In addition, the “effect on crop, Rice (level)” value in the series on rice was determined as 10. In the series on wheat [2], the “Wheat (activity level, crop damage)” value is given as 1 (Level 1: below 5% growth control rate). In addition, in the series with chickweed, the “chickweed weed controlling effect” value is recorded as 10. Further, in the series with corn gromwell, the “corn gromwell weed controlling effect” value was 10. In the series on flixweed, the “flixweed weed controlling effect” value was found to be 10. For the same compound, in the series with shepherd's purse, the “shepherd's purse weed controlling effect (activity level)” value is recorded as 10.
On to `Cc1nn(C)cc1C(=O)Oc1c(C(=O)c2ccc(C(F)(F)F)c(N3CCCCCC3=O)c2Cl)c(C)nn1C` [Compound 058], for which the “weed control effect, Indian mallow (level)” value in the series with Indian mallow turned out to be 10. Further, the “weed control effect, Bidens bipinnata (level)” value in the series on bidens bipinnata is listed as 4 (Level 4: above 50% growth control rate). In addition, in the series with crab grass, the “weed control effect, Crab grass (level)” value is recorded as 1 (Level 1: below 5% growth control rate). In the series with echinochloa, the “weed control effect, Echinochloa (level)” value was 4 (Level 4: above 50% growth control rate). Also, the “weed control effect, Green foxtail (level)” value in the series on foxtail is 1 (Level 1: below 5% growth control rate). In addition, the “weed control effect, Rorippa indica (level)” value in the series with rorippa indica worked out at 10. Further, in the series on corn, the “effect on crop, Corn (level)” value is reported as 1 (Level 1: below 5% growth control rate). Moreover, the “effect on crop, Wheat (level)” value in the series on wheat [1] was 0. For the same compound, the “effect on crop, Rice (level)” value in the series on rice was 2 (Level 2: 5%-20% growth control rate). Besides, in the series on wheat [2], the “Wheat (activity level, crop damage)” value is 0. Further, the “chickweed weed controlling effect” value with chickweed was 10. In the series on corn gromwell, the “corn gromwell weed controlling effect” value turned out to be 10. In the series with flixweed, the “flixweed weed controlling effect” value came out at 10. The “shepherd's purse weed controlling effect (activity level)” value with shepherd's purse was found to be 10.
